Patent publication US7132287B2, “Method for neural stem cell differentiation using 5HT-1A agonists” (Psychiatric Genomics, Inc., priority 2001, dated 2006)
Where “and” joins values, the source holds several entries; their conditions need not be identical. Equal entries are not always repeated.

Assays:
[1] = test system: cortical neural stem cells; experiment: Neuronal differentiation of cortical neural stem cells (β tubulin III / TuJ-1 immunofluorescence); assay type: cell-based, rat; conditions: 1 μM Buspirone alone, 6 days
Source text: (§1) Isolation of cortical and striatal stem cells. Timed pregnant Sprague Dawley rats obtained from Taconic at embryonic age E14-E15 were sacrificed as described above and the uterus removed and placed in ice cold PBS in a 10 cm petridish. After rinsing the uterus in PBS, embryos were removed from the uterus, rinsed in PBS and collected in cold HBSS (buffered with HEPES and sodium bicarbonate) in a 10 cm petridish and placed on ice.
(§2) The cortex and striatum was dissected under a microscope and collected in a 15 ml tube of HBSS, on ice. Removal of meninges is not possible at this age, and no attempt was made to do so. If the dissected tissue was in large enough chunks and settle to the bottom of the tube, no centrifugation was performed. Alternatively, the tube was centrifuged at 1000 rpm for 5 minutes to pellet the tissue. Following centrifugation, the 15 ml tube containing the tissue was sprayed with 70% ethanol and taken into the sterile hood.
(§3) The HBSS was aspirated and replaced with 10 ml of DMEM/F12. The tissue was collected at the bottom of the tube by gravity or centrifugation, medium was aspirated, and 1 ml of DMEM/F12 was to the tissue. Cells were dissociated by trituration as described above, followed by addition of 5 ml of DMEM/F12 and a second round of trituration. […] The tubes were placed standing 5–10 minutes in the hood to allow larger particles and meninges to settle. While the meninges were settling, a cell count was made. 10 μl of the cell suspension is diluted with trypan blue and counted in a hemocytometer. Cells were counted in the four outer chambers with the larger squares, and cell count calculated assuming that the volume enclosed in each of the chambers was […].
(§4) Plating, expansion and passaging of cortical and striatal stem cells A generous amount of the triturated cell suspension was left in the original 15 ml tube to avoid fibroblast contamination in cultures. About 4–5 ml of the 6 ml of cells suspension was used for plating. Cells were plated at a concentration of approximately 1×10^6 per 10 cm dish. This culture is designated P0 (passage 0).
(§5) Following plating cells were expanded for about 3–4 days. The cultures were never permitted to reach more than 70% confluency. Cultures were then passaged as follows: 5 ml of HBSS was added to each 10 cm dish and the cells incubated at 37° C. for 15–45 minutes, or until sufficient numbers of the stem cells were rounded up. It is not expected that all cells in the culture will round up as there are several cell types in the culture at P0. The pH of the HBSS should be neutral at all times during this incubation. Cells were then removed from the dish by pipetting with a 5 ml pipette, or by scraping with a policeman, collected in a 15 or 50 ml conical tube, and centrifuged at 1000 g for 5 minutes. Cells were gently re-suspended in medium, counted, and plated at a density of about 1×10^6 per 10 cm dish.
(§6) Drug treatments. Stem cells obtained as described above were treated with drugs and subjected to differentiation protocols in the second passage. Cells were plated at a density of 1×10^4 cells per well of a 12-well petridish (Falcon).
Drug treatments were started on the next day. […] The WAY 100635 antagonist compound was used simultaneously with buspirone or serotonin in the blocking experiments. Positive and negative control cultures were those treated with BDNF and FGF alone, respectively.
Cells were treated with the designated concentrations of drugs or combinations thereof, daily, and were fed every alternate day with fresh medium. Experiments were maintained for about 6–10 days in most cases.

[2] = test system: striatal stem cells; experiment: Differentiation of striatal stem cells (TuJ1 positive cells); assay type: cell-based, rat; conditions: for % TuJ1 positive cells: striatal stem cells, Table 6
Source text: as §1, §2, §3, §4, §5, §6
Drug treatments were started on the next day. […] The WAY 100635 antagonist compound was used simultaneously with buspirone or serotonin in the blocking experiments. Positive and negative control cultures were those treated with BDNF and FGF alone, respectively. […]

[3] = TuJ-1 staining, listed as Buspirone

O=C1CC2(CCCC2)CC(=O)N1CCCCN1CCN(c2ncccn2)CC1 [buspirone, 8-[4-[4-(2-pyrimidinyl)-1-piperazinyl]butyl]-8-azaspiro[4,5]decane-7,9-dione]
Total No. of Cells [1]: 1168 and 1228 | % Fluorescent Cells ([1]; TuJ-1 staining): significant neuronal differentiation | % Fluorescent Cells [1, 3]: 27.27% and 20.15% | No. Fluorescent Cells [1, 3]: 320 and 260 | % TuJ1 positive cells ([2]; 100 nM): 54.4 ± 2.1% | % TuJ1 positive cells ([2]; 500 nM): 64.8 ± 2.1% | % TuJ1 positive cells ([2]; 10 μM): 67.9 ± 10.2% | % TuJ1 positive cells ([2]; 100 μM): 68.5 ± 6.5% | promotion of differentiation compared to untreated control cultures (in words) ([2]; striatum, concentrations as low as 100 nM): able to promote differentiation significantly
